From patent publication US20090311198A1, “Perhydrolase for Tooth Whitening” (priority 2006, published 2009)
Marks after values point to notes of the source that are not given here.

Assays:
[1] = Intrinsic stain removal (tooth whitening) on human enamel specimens, CIELAB colour readings; conditions: for Total Change (ΔE) in Intrinsic Stain Scores: 20 ml, 30 minute intervals, mean ± SD, n = 8; for Dose-response of tooth whitening (ΔE): 0.20% to 0.01% solutions
Excerpt: In the following Examples, human permanent teeth with natural intrinsic stains were obtained from oral surgeons. Selection of appropriate teeth was based on the presence of intrinsic stain after removal of exogenous stains using methods known in the art involving use of rubber cup polishing with an aqueous pumice slurry. A VITA® dental shade guide was used as a reference for tooth selection. Only specimens with a shade score of A3 or darker after drying were used in these experiments. The test specimens were comprised of cylinders of human enamel 3 mm in diameter mounted in a 10-mm-diameter black acrylic base. The circular pieces of human enamel were cut using a 3-mm diamond core drill (Continental). In order to cut the enamel, the human teeth were first mounted in 2-cm square blocks of self-curing dental acrylic with the labial surface exposed. Each block was then clamped into a small vise and immersed in a container of water to prevent the enamel from burning during the cutting process. Each immersed tooth was positioned directly under and perpendicular to the diamond core drill bit mounted on the end of an electric drill press. At high speed, the diamond core drill was lowered onto the tooth and gentle pressure was applied as the bit cut through the enamel and dentin. The 3-mm piece of cut enamel was then removed from the end of the diamond core drill and embedded with the aid of a circular mold into black, self-curing dental acrylic, providing circular blocks 10 mm in diameter. This was done in such a manner that the areas of tooth substance exposed by the drilling process were sealed by the acrylic, while the 3-mm surface enamel was left exposed. The finished tooth specimens were examined under a dissecting microscope. Specimens with imperfections were discarded. Acceptable specimens were thoroughly rinsed with distilled water, and refrigerated in a humidor until use.
In these experiments, stain on the teeth was measured using the following method. The amount of the intrinsic stain within the teeth was measured by taking color readings with a Minolta CM-503i Spectrophotometer with diffuse illumination/8° viewing angle and 3 mm aperture. Measurements over the entire visible color spectrum were obtained using the CIELAB (Commission Internationale de L'Eclairage, Recommendations on Uniform Color Spaces. Color Difference Equations. Psychometric color Terms, Suppl. 2 to CIE publication 15 (E-13.1) 1971/(TC-1.3), 1978, Paris: Bureau Central de la CIE, 1978) color scale. This scale quantifies color according to 3 parameters, L* (lightness-darkness value), a* (red-green chroma), and b* (yellow-blue chroma). In order to obtain reproducible readings, the enamel specimens were allowed to air-dry at room temperature for 30 minutes before color measurements were taken. When the specimens were exposed to air, the teeth became whiter as they dry within the first few minutes and the color parameters change dramatically, but stabilized after 30 minutes.
Measurements were obtained by aligning the center of the circular 3-mm segment of enamel directly over the 3-mm-diameter targeting aperture of the Minolta spectrophotometer, which enabled accurate positioning of the specimens for each test. An average of 3 color readings using the L*a*b* scale were taken for each specimen.
In this Example, methods of treating the tooth samples are described. Before treatment, the baseline L*a*b* color scores of the tooth specimens were determined and used to stratify the teeth samples into balanced groups of 8 specimens each. For testing, each tooth specimen was immersed in 20 ml of the respective test solution for 30 minutes. The test solutions were stirred at 60 rpm with a mechanical stirrer for the duration of the exposure.
Following each 30-minute treatment period, the specimens were rinsed and then placed back into fresh test solution. […] As a control group, 8 teeth were similarly treated in distilled water. […]

[2] = dilute 1% aqueous solution, cited from earlier work
[3] = aqueous 1% (by weight) solution; ambient to oral range temperatures; cited from earlier work
[4] = Hydrolysis of PAA standards in buffer (ABTS assay standard curve); format: physicochemical; conditions: B(OH)3 buffer; standard concentrations in B(OH)3, pH 8.5 buffer
Procedure: The standard curve was prepared as described below. A working stock of PAA was prepared by diluting 32% 10^4-fold to 0.4 mM in water (note: stock contained acetic acid). […] At ambient temperature, 50 to 100 uL of standard PAA dilution were added to 1 mL of the ABTS reagent. The solution was mixed well and incubated at ambient temperature for 3 minutes. The absorbance at 420 nm (or another chosen wavelength) was then measured.

Structure (SMILES): OO [H2O2, hydrogen peroxide]
- Total Change (ΔE) in Intrinsic Stain Scores ([1]; 3% (positive control), Hour 1): 6.21 ± 3.46^a
- Total Change (ΔE) in Intrinsic Stain Scores ([1]; 3% (positive control), Hour 2): 7.15 ± 2.96^a
- Total Change (ΔE) in Intrinsic Stain Scores ([1]; 3% (positive control), Hour 4): 7.28 ± 2.75^a
- Total Change (ΔE) in Intrinsic Stain Scores ([1]; 3% (positive control), Hour 8): 7.48 ± 2.95^a
- Total Change (ΔE) in Intrinsic Stain Scores ([1]; 3% (positive control), Hour 10): 7.77 ± 3.34^a
- Total Change (ΔE) in Intrinsic Stain Scores ([1]; 3% (positive control), Hour 12): 9.00 ± 4.07^a
- Total Change (ΔE) in Intrinsic Stain Scores ([1]; 3% (positive control), Hour 14): 9.68 ± 3.85^a
- Total Change (ΔE) in Intrinsic Stain Scores ([1]; 3% (positive control), Hour 16): 10.68 ± 3.51^a

Structure (SMILES): CC(=O)OO [Peracetic Acid, peracetic acid]
- Total Change (ΔE) in Intrinsic Stain Scores ([1]; 0.01% in 100 mmolar phosphate buffer, Hour 1): 2.98 ± 2.57^b,c,d
- Total Change (ΔE) in Intrinsic Stain Scores ([1]; 0.01% in 100 mmolar phosphate buffer, Hour 2): 4.06 ± 2.51^b
- Total Change (ΔE) in Intrinsic Stain Scores ([1]; 0.01% in 100 mmolar phosphate buffer, Hour 4): 4.09 ± 2.33^b
- Total Change (ΔE) in Intrinsic Stain Scores ([1]; 0.01% in 100 mmolar phosphate buffer, Hour 8): 5.11 ± 2.71^a
- Total Change (ΔE) in Intrinsic Stain Scores ([1]; 0.01% in 100 mmolar phosphate buffer, Hour 10): 5.88 ± 2.55^a
- Total Change (ΔE) in Intrinsic Stain Scores ([1]; 0.01% in 100 mmolar phosphate buffer, Hour 12): 6.79 ± 3.23^a
- Total Change (ΔE) in Intrinsic Stain Scores ([1]; 0.01% in 100 mmolar phosphate buffer, Hour 14): 7.13 ± 3.14^a
- Total Change (ΔE) in Intrinsic Stain Scores ([1]; 0.01% in 100 mmolar phosphate buffer, Hour 16): 7.57 ± 3.05^a
- Total Change (ΔE) in Intrinsic Stain Scores ([1]; 0.05% in 100 mmolar phosphate buffer, Hour 1): 3.41 ± 2.19^b,c,d
- Total Change (ΔE) in Intrinsic Stain Scores ([1]; 0.05% in 100 mmolar phosphate buffer, Hour 2): 3.83 ± 1.81^b
- Total Change (ΔE) in Intrinsic Stain Scores ([1]; 0.05% in 100 mmolar phosphate buffer, Hour 4): 4.72 ± 1.67^b
- Total Change (ΔE) in Intrinsic Stain Scores ([1]; 0.05% in 100 mmolar phosphate buffer, Hour 8): 5.04 ± 1.72^a
- Total Change (ΔE) in Intrinsic Stain Scores ([1]; 0.05% in 100 mmolar phosphate buffer, Hour 10): 6.08 ± 1.25^a
- Total Change (ΔE) in Intrinsic Stain Scores ([1]; 0.05% in 100 mmolar phosphate buffer, Hour 12): 6.55 ± 1.79^a
- Total Change (ΔE) in Intrinsic Stain Scores ([1]; 0.05% in 100 mmolar phosphate buffer, Hour 14): 6.82 ± 1.91^a
- Total Change (ΔE) in Intrinsic Stain Scores ([1]; 0.05% in 100 mmolar phosphate buffer, Hour 16): 7.72 ± 2.15^a
- Total Change (ΔE) in Intrinsic Stain Scores ([1]; 0.10% in 100 mmolar phosphate buffer, Hour 1): 5.60 ± 2.69^a,b
- Total Change (ΔE) in Intrinsic Stain Scores ([1]; 0.10% in 100 mmolar phosphate buffer, Hour 2): 5.38 ± 1.75^a,b
- Total Change (ΔE) in Intrinsic Stain Scores ([1]; 0.10% in 100 mmolar phosphate buffer, Hour 4): 6.09 ± 2.52^a,b
- Total Change (ΔE) in Intrinsic Stain Scores ([1]; 0.10% in 100 mmolar phosphate buffer, Hour 8): 6.58 ± 2.94^a
- Total Change (ΔE) in Intrinsic Stain Scores ([1]; 0.10% in 100 mmolar phosphate buffer, Hour 10): 7.05 ± 3.31^a
- Total Change (ΔE) in Intrinsic Stain Scores ([1]; 0.10% in 100 mmolar phosphate buffer, Hour 12): 7.89 ± 3.47^a
- Total Change (ΔE) in Intrinsic Stain Scores ([1]; 0.10% in 100 mmolar phosphate buffer, Hour 14): 8.71 ± 4.66^a
- Total Change (ΔE) in Intrinsic Stain Scores ([1]; 0.10% in 100 mmolar phosphate buffer, Hour 16): 9.08 ± 4.24^a
- Total Change (ΔE) in Intrinsic Stain Scores ([1]; 0.20% in 100 mmolar phosphate buffer, Hour 1): 5.31 ± 1.75^a,b,c
- Total Change (ΔE) in Intrinsic Stain Scores ([1]; 0.20% in 100 mmolar phosphate buffer, Hour 2): 6.60 ± 2.37^a
- Total Change (ΔE) in Intrinsic Stain Scores ([1]; 0.20% in 100 mmolar phosphate buffer, Hour 4): 7.37 ± 2.85^a
- Total Change (ΔE) in Intrinsic Stain Scores ([1]; 0.20% in 100 mmolar phosphate buffer, Hour 8): 7.54 ± 2.34^a
- Total Change (ΔE) in Intrinsic Stain Scores ([1]; 0.20% in 100 mmolar phosphate buffer, Hour 10): 7.72 ± 3.12^a
- Total Change (ΔE) in Intrinsic Stain Scores ([1]; 0.20% in 100 mmolar phosphate buffer, Hour 12): 8.53 ± 3.65^a
- Total Change (ΔE) in Intrinsic Stain Scores ([1]; 0.20% in 100 mmolar phosphate buffer, Hour 14): 9.08 ± 3.81^a
- Total Change (ΔE) in Intrinsic Stain Scores ([1]; 0.20% in 100 mmolar phosphate buffer, Hour 16): 9.34 ± 4.10^a
- Tooth whitening (ΔE) compared with hydrogen peroxide positive control ([1]; after 8 hours, ANOVA and SNK test, p < 0.05): statistically equivalent to the hydrogen peroxide positive control
- Dose-response of tooth whitening (ΔE) ([1]; during the first four hours of treatment): significant dose-response
- Dose-response of tooth whitening (ΔE) ([1]; up to 16 hours of treatment): numerical dose-response effect
- Time to substantial decomposition ([2]; ambient temperatures): ≥ 30 days
- Storage stability ([2]; storage at 3° C.): significantly improves stability
- Whitening effect on teeth compared with 30% (by weight) aqueous hydrogen peroxide [3]: faster and superior whitening effect
- half-life [4]: 25 min
